In ChEMBL document CHEMBL1201862, “PubChem BioAssay data set” (2004):
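48-hour exposure; five concentrations; linearly interpolated endpoints. Abbreviation: GI50, concentration required for 50% inhibition of growth.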 Activity calls are given as the source filed them. No stated cut-off is given here; in the data, active = GI50 up to about 1.1 µM and inactive = higher.

Columns and labels:
Assay in all cases: NCI tumour cell line growth inhibition, 48 h
A549 = system: A549
HCT-116 = system: HCT-116
SK-OV-3 = system: SK-OV-3
EKVX = system: EKVX
T47D = system: T47D
MDA-N = system: MDA-N
NCI-H460 = system: NCI-H460
HCT-15 = system: HCT-15
SF-295 = system: SF-295
UACC-257 = system: UACC-257
MCF7 = system: MCF7
CCRF-CEM = system: CCRF-CEM
OVCAR-8 = system: OVCAR-8
SK-MEL-28 = system: SK-MEL-28
RXF 393 = system: RXF 393
SW-620 = system: SW-620
COLO 205 = system: COLO 205
SR = system: SR
UO-31 = system: UO-31
MDA-MB-435 = system: MDA-MB-435
HOP-62 = system: HOP-62
HL-60 = system: HL-60
NCI/ADR-RES = system: NCI/ADR-RES
ACHN = system: ACHN
A498 = system: A498
OVCAR-4 = system: OVCAR-4
OVCAR-5 = system: OVCAR-5
PC-3 = system: PC-3
NCI-H226 = system: NCI-H226
HCC 2998 = system: HCC 2998
NCI-H522 = system: NCI-H522
SF-268 = system: SF-268
HT-29 = system: HT-29
RPMI-8226 = system: RPMI-8226
U-251 = system: U-251
LOX IMVI = system: LOX IMVI
786-0 = system: 786-0
Hs-578T = system: Hs-578T
SN12C = system: SN12C
SK-MEL-5 = system: SK-MEL-5
UACC-62 = system: UACC-62
MOLT-4 = system: MOLT-4
BT-549 = system: BT-549
K562 = system: K562
KM12 = system: KM12
CAKI-1 = system: CAKI-1
MDA-MB-231 = system: MDA-MB-231
DU-145 = system: DU-145
NCI-H23 = system: NCI-H23
HOP-92 = system: HOP-92
SF-539 = system: SF-539
OVCAR-3 = system: OVCAR-3
Malme-3M = system: Malme-3M
SNB-75 = system: SNB-75
SNB-19 = system: SNB-19
M14 = system: M14
IGROV-1 = system: IGROV-1
TK-10 = system: TK-10
SK-MEL-2 = system: SK-MEL-2

## Cc1sc2nc3n(c(=O)c2c1C)N=C(c1ccc([N+](=O)[O-])cc1)CS3
A549
  GI50: > 100 µM (inactive)
HCT-116
  GI50: > 100 µM (inactive)
SK-OV-3
  GI50: > 100 µM (inactive)
EKVX
  GI50: > 100 µM (inactive)
T47D
  GI50: > 100 µM (inactive)
MDA-N
  GI50: > 100 µM (inactive)
NCI-H460
  GI50: > 100 µM (inactive)
HCT-15
  GI50: > 100 µM
SF-295
  GI50: > 100 µM (inactive)
UACC-257
  GI50: > 100 µM (inactive)
MCF7
  GI50: > 100 µM (inactive)
CCRF-CEM
  GI50: > 100 µM (inactive)
OVCAR-8
  GI50: > 100 µM (inactive)
SK-MEL-28
  GI50: > 100 µM (inactive)
RXF 393
  GI50: > 100 µM (inactive)
SW-620
  GI50: > 100 µM (inactive)
COLO 205
  GI50: > 100 µM (inactive)
SR
  GI50: > 100 µM (inactive)
UO-31
  GI50: > 100 µM (inactive)
MDA-MB-435
  GI50: > 100 µM (inactive)
HOP-62
  GI50: 61.9 µM (inactive)
HL-60
  GI50: > 100 µM (inactive)
NCI/ADR-RES
  GI50: > 100 µM (inactive)
ACHN
  GI50: > 100 µM (inactive)
A498
  GI50: > 100 µM (inactive)
OVCAR-4
  GI50: > 10 µM (inactive)
OVCAR-5
  GI50: > 100 µM (inactive)
PC-3
  GI50: > 100 µM (inactive)
NCI-H226
  GI50: > 100 µM (inactive)
HCC 2998
  GI50: > 100 µM (inactive)
NCI-H522
  GI50: > 100 µM (inactive)
SF-268
  GI50: > 100 µM (inactive)
HT-29
  GI50: > 100 µM (inactive)
RPMI-8226
  GI50: > 100 µM (inactive)
U-251
  GI50: > 100 µM (inactive)
LOX IMVI
  GI50: > 100 µM (inactive)
786-0
  GI50: > 100 µM (inactive)
Hs-578T
  GI50: 97.5 µM (inactive)
SN12C
  GI50: > 100 µM (inactive)
SK-MEL-5
  GI50: > 100 µM (inactive)
UACC-62
  GI50: > 100 µM (inactive)
MOLT-4
  GI50: > 100 µM (inactive)
BT-549
  GI50: 56.5 µM (inactive)
K562
  GI50: > 100 µM (inactive)
KM12
  GI50: > 100 µM (inactive)
CAKI-1
  GI50: > 100 µM (inactive)
MDA-MB-231
  GI50: > 100 µM (inactive)
DU-145
  GI50: > 100 µM (inactive)
NCI-H23
  GI50: > 100 µM (inactive)
HOP-92
  GI50: > 100 µM (inactive)
SF-539
  GI50: > 100 µM (inactive)
OVCAR-3
  GI50: > 100 µM (inactive)
Malme-3M
  GI50: > 100 µM (inactive)
SNB-75
  GI50: 83.8 µM (inactive)

## c1ccc2c(OCC3CO3)ccc(OCC3CO3)c2c1 (stereo unspecified)
A549
  GI50: 4.32 µM (inactive)
HCT-116
  GI50: 1.36 µM (inactive)
SK-OV-3
  GI50: 12.6 µM (inactive)
EKVX
  GI50: 17.4 µM (inactive)
T47D
  GI50: 1.91 µM (inactive)
MDA-N
  GI50: 2.8 µM (inactive)
NCI-H460
  GI50: 3.42 µM (inactive)
HCT-15
  GI50: 3.85 µM
SF-295
  GI50: 2.86 µM (inactive)
UACC-257
  GI50: 7.14 µM (inactive)
MCF7
  GI50: 0.897 µM (active)
CCRF-CEM
  GI50: 0.27 µM (active)
OVCAR-8
  GI50: 2.2 µM (inactive)
SK-MEL-28
  GI50: 9.98 µM (inactive)
RXF 393
  GI50: 2.63 µM (inactive)
SW-620
  GI50: 1.26 µM (inactive)
COLO 205
  GI50: 10.6 µM (inactive)
SR
  GI50: 0.343 µM (active)
UO-31
  GI50: 1.61 µM (inactive)
MDA-MB-435
  GI50: 2.44 µM (inactive)
HOP-62
  GI50: 3.03 µM (inactive)
HL-60
  GI50: 0.321 µM (active)
NCI/ADR-RES
  GI50: 4.18 µM (inactive)
ACHN
  GI50: 1.89 µM (inactive)
A498
  GI50: 17 µM (inactive)
OVCAR-4
  GI50: 7.05 µM (inactive)
OVCAR-5
  GI50: 11.2 µM (inactive)
PC-3
  GI50: 4.76 µM (inactive)
NCI-H226
  GI50: 12.1 µM (inactive)
HCC 2998
  GI50: 11.8 µM (inactive)
NCI-H522
  GI50: 10.4 µM (inactive)
SF-268
  GI50: 0.571 µM (active)
HT-29
  GI50: 4.82 µM (inactive)
RPMI-8226
  GI50: 3.04 µM (inactive)
U-251
  GI50: 2.32 µM (inactive)
LOX IMVI
  GI50: 0.515 µM (active)
786-0
  GI50: 2.11 µM (inactive)
Hs-578T
  GI50: 5.32 µM (inactive)
SN12C
  GI50: 2.22 µM (inactive)
SK-MEL-5
  GI50: 6.64 µM (inactive)
UACC-62
  GI50: 3.06 µM (inactive)
SNB-19
  GI50: 8.13 µM (inactive)
MOLT-4
  GI50: 0.352 µM (active)
M14
  GI50: 3.38 µM (inactive)
BT-549
  GI50: 6.49 µM (inactive)
K562
  GI50: 2 µM (inactive)
KM12
  GI50: 4.14 µM (inactive)
CAKI-1
  GI50: 1.74 µM (inactive)
MDA-MB-231
  GI50: 10.5 µM (inactive)
DU-145
  GI50: 2.36 µM (inactive)
IGROV-1
  GI50: 3.44 µM (inactive)
NCI-H23
  GI50: 2.51 µM (inactive)
HOP-92
  GI50: 5.57 µM (inactive)
SF-539
  GI50: 2.21 µM (inactive)
OVCAR-3
  GI50: 1.38 µM (inactive)
TK-10
  GI50: 13.5 µM (inactive)
Malme-3M
  GI50: 7.13 µM (inactive)
SNB-75
  GI50: 14.6 µM (inactive)

## c1csc(-c2cscc2-c2ccsc2)c1
A549
  GI50: 47.9 µM (inactive)
HCT-116
  GI50: 41.2 µM (inactive)
SK-OV-3
  GI50: 47.4 µM (inactive)
EKVX
  GI50: 41.2 µM (inactive)
T47D
  GI50: > 55.1 µM (inactive)
MDA-N
  GI50: 33.3 µM (inactive)
NCI-H460
  GI50: 62.2 µM (inactive)
HCT-15
  GI50: 30.3 µM
SF-295
  GI50: > 66.8 µM (inactive)
UACC-257
  GI50: > 94.4 µM (inactive)
MCF7
  GI50: 30.6 µM (inactive)
CCRF-CEM
  GI50: 41.8 µM (inactive)
OVCAR-8
  GI50: 98.2 µM (inactive)
SK-MEL-28
  GI50: > 100 µM (inactive)
RXF 393
  GI50: 20.9 µM (inactive)
SW-620
  GI50: 62.2 µM (inactive)
COLO 205
  GI50: > 100 µM (inactive)
SR
  GI50: 26.6 µM (inactive)
UO-31
  GI50: > 70.8 µM (inactive)
MDA-MB-435
  GI50: 25.5 µM (inactive)
HOP-62
  GI50: 42.3 µM (inactive)
HL-60
  GI50: 30.5 µM (inactive)
NCI/ADR-RES
  GI50: 48.1 µM (inactive)
ACHN
  GI50: > 83.9 µM (inactive)
A498
  GI50: > 96.8 µM (inactive)
OVCAR-4
  GI50: 44.5 µM (inactive)
OVCAR-5
  GI50: > 69.2 µM (inactive)
PC-3
  GI50: > 43.8 µM (inactive)
SK-MEL-2
  GI50: 52.2 µM (inactive)
NCI-H226
  GI50: > 43.5 µM (inactive)
HCC 2998
  GI50: 28.4 µM (inactive)
NCI-H522
  GI50: 22.2 µM (inactive)
SF-268
  GI50: 75 µM (inactive)
HT-29
  GI50: > 84.9 µM (inactive)
RPMI-8226
  GI50: 34 µM (inactive)
U-251
  GI50: > 100 µM (inactive)
LOX IMVI
  GI50: 41.1 µM (inactive)
786-0
  GI50: > 63.1 µM (inactive)
Hs-578T
  GI50: 20.4 µM (inactive)
SN12C
  GI50: > 86.1 µM (inactive)
SK-MEL-5
  GI50: 75.9 µM (inactive)
UACC-62
  GI50: 70.3 µM (inactive)
SNB-19
  GI50: > 57.5 µM (inactive)
MOLT-4
  GI50: 26.2 µM (inactive)
M14
  GI50: 54.1 µM (inactive)
BT-549
  GI50: > 100 µM (inactive)
K562
  GI50: 31.6 µM (inactive)
KM12
  GI50: 32.1 µM (inactive)
CAKI-1
  GI50: > 95.3 µM (inactive)
MDA-MB-231
  GI50: > 100 µM (inactive)
DU-145
  GI50: > 100 µM (inactive)
IGROV-1
  GI50: 68.9 µM (inactive)
NCI-H23
  GI50: 35.3 µM (inactive)
HOP-92
  GI50: > 86.5 µM (inactive)
SF-539
  GI50: > 53.2 µM (inactive)
OVCAR-3
  GI50: 18.4 µM (inactive)
TK-10
  GI50: > 100 µM (inactive)
Malme-3M
  GI50: 20.9 µM (inactive)
SNB-75
  GI50: > 52.1 µM (inactive)
